Reference: patent EP4273147A1, “SUBSTITUTED SPIROLACTAMS, SALTS THEREOF AND THEIR USE AS HERBICIDALLY ACTIVE SUBSTANCES” (Bayer Aktiengesellschaft, priority 2022, dated 2023)

Columns and labels:
SETVI [1] = assay: Herbicidal pre-emergence action (Table A5); type: in vivo, Setaria viridis; details: application rate 320 g/ha; visual grading after ca. 3 weeks
How it was run: (§1)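 Two-species sowings per pot, mono- plus dicotyledonous weeds; soil type sandy loam, seed covered after sowing.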

LOLRI [2] = assay: Herbicidal pre-emergence action (Table A3); type: in vivo, Lolium rigidum; details: application rate 320 g/ha; visual grading after ca. 3 weeks
How it was run: as §1

ECHCG [3] = assay: Herbicidal pre-emergence action, section C (Table C6); type: in vivo, Echinochloa crus-galli; details: application rate 80 g/ha; visual grading after ca. 3 weeks
VIOTR [4] = assay: Herbicidal pre-emergence action, section C (Table C12); type: in vivo, Viola tricolor; details: application rate 80 g/ha; visual grading after ca. 3 weeks
SETVI [5] = assay: Herbicidal pre-emergence action, section C (Table C10); type: in vivo, Setaria viridis; details: application rate 320 g/ha; visual grading after ca. 3 weeks
TRZAS = assay: Post-emergence effects on crop plants (Table F2); type: in vivo, Triticum aestivum; details: application rate 320 g/ha, crop plant TRZAS
Excerpt: (§2) 2 to 3 weeks after sowing, the test plants were sprayed in the single-leaf stage.

ORYZA [6] = assay: Post-emergence effects on crop plants (Table F3); type: in vivo, Oryza sativa; details: application rate 320 g/ha, crop plant ORYZA
Excerpt: as §2

VERPE [7] = assay: Herbicidal pre-emergence action, section C (Table C11); type: in vivo, Veronica persica; details: application rate 320 g/ha; visual grading after ca. 3 weeks
DIGSA [8] = assay: Herbicidal pre-emergence action (Table A12); type: in vivo, Digitaria sanguinalis; details: application rate 320 g/ha; visual grading after ca. 3 weeks
How it was run: as §1

POAAN = assay: Herbicidal pre-emergence action (Table A7); type: in vivo, Poa annua; details: application rate 320 g/ha; visual grading after ca. 3 weeks
How it was run: as §1

ALOMY [9] = assay: Herbicidal pre-emergence action (Table A9); type: in vivo, Alopecurus myosuroides; details: application rate 1280 g/ha; visual grading after ca. 3 weeks
How it was run: as §1

ALOMY [10] = assay: Herbicidal pre-emergence action, section C (Table C2); type: in vivo, Alopecurus myosuroides; details: application rate 320 g/ha; visual grading after ca. 3 weeks
AMARE = assay: Herbicidal pre-emergence action (Table A8); type: in vivo, Amaranthus retroflexus; details: application rate 1280 g/ha; visual grading after ca. 3 weeks vs untreated controls (100% = plants have died off, 0% = as control plants)
How it was run: as §1

SETVI [11] = assay: Herbicidal post-emergence action (Table B8); type: in vivo, Setaria viridis; details: application rate 1280 g/ha
How it was run: (§3)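 Percent herbicidal activity scored visually versus untreated controls, with 100% meaning dead plants. Scoring took place ~3 weeks after post-emergence treatment of one-leaf-stage weeds grown in sandy loam pots in a greenhouse.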

MATIN [12] = assay: Herbicidal pre-emergence action (Table A4); type: in vivo, Matricaria inodora; details: application rate 1280 g/ha; visual grading after ca. 3 weeks
How it was run: as §1

ABUTH [13] = assay: Herbicidal pre-emergence action, section C (Table C1); type: in vivo, Abutilon theophrasti; details: application rate 320 g/ha; visual grading after ca. 3 weeks
ECHCG [14] = assay: Herbicidal pre-emergence action (Table A2); type: in vivo, Echinochloa crus-galli; details: application rate 1280 g/ha; visual grading after ca. 3 weeks
How it was run: as §1

MATIN [15] = assay: Herbicidal pre-emergence action, section C (Table C8); type: in vivo, Matricaria inodora; details: application rate 320 g/ha; visual grading after ca. 3 weeks
DIGSA [16] = assay: Herbicidal post-emergence action (Table B12); type: in vivo, Digitaria sanguinalis; details: application rate 1280 g/ha
Experimental: Seeds of mono- and dicotyledonous weed plants were placed in plastic pots in sandy loam soil (doubly sown with in each case one species of mono- or dicotyledonous weed plants per pot), covered with soil and cultivated in a greenhouse under controlled growth conditions. 2 to 3 weeks after sowing, the test plants were treated at the one-leaf stage. […] After the test plants had been kept in the greenhouse under optimum growth conditions for about 3 weeks, the activity of the preparations was rated visually in comparison to untreated controls. For example, 100% activity = the plants have died, 0% activity = like control plants.

ZEAMX [17] = assay: Pre-emergence effects on crop plants (Table D1); type: in vivo, Zea mays; details: crop plant; application rate 80 g/ha; visual grading after ca. 3 weeks
KCHSC = assay: Herbicidal pre-emergence action (Table A10); type: in vivo, Kochia scoparia; details: application rate 320 g/ha; visual grading after ca. 3 weeks
How it was run: as §1

ORYZA [18] = assay: Pre-emergence effects on crop plants (Table D3); details: crop plant; application rate 80 g/ha; visual grading after ca. 3 weeks
ZEAMX [19] = assay: Post-emergence effects on crop plants (Table F1); type: in vivo, Zea mays; details: application rate 320 g/ha, crop plant ZEAMX
Excerpt: as §2

STEME = assay: Herbicidal pre-emergence action (Table A6); type: in vivo, Stellaria media; details: application rate 320 g/ha; visual grading after ca. 3 weeks
How it was run: as §1

ABUTH [20] = assay: Herbicidal post-emergence action, section E (Table E1); type: in vivo, Abutilon theophrasti; details: application rate 320 g/ha; assessed visually after ca. 3 weeks
Excerpt: as §2

VERPE [21] = assay: Herbicidal pre-emergence action (Table A11); type: in vivo, Veronica persica; details: application rate 1280 g/ha; visual grading after ca. 3 weeks
How it was run: as §1

LOLRI [22] = assay: Herbicidal pre-emergence action, section C (Table C7); type: in vivo, Lolium rigidum; details: application rate 320 g/ha; visual grading after ca. 3 weeks
VIOTR [23] = assay: Herbicidal post-emergence action, section E (Table E10); type: in vivo, Viola tricolor; details: application rate 320 g/ha; assessed visually after ca. 3 weeks
Excerpt: as §2

DIGSA [24] = assay: Herbicidal pre-emergence action, section C (Table C5); type: in vivo, Digitaria sanguinalis; details: application rate 80 g/ha; visual grading after ca. 3 weeks
Excerpt: Seeds of mono- and dicotyledonous weed plants and crop plants were sown, in plastic or organic planting pots, in sandy loam and covered with soil. The compounds according to the invention, formulated in the form of wettable powders (WP) or as emulsifiable concentrates (EC), were applied to the surface of the covering soil as aqueous suspension or emulsion, with the addition of 0.5% of an additive, at an application rate of 600 1 of water/ha (converted). Following treatment, the pots were placed in a greenhouse and kept under optimum growth conditions for the test plants.

ECHCG [25] = assay: Herbicidal post-emergence action (Table B3); type: in vivo, Echinochloa crus-galli; details: application rate 1280 g/ha; rated visually after about 3 weeks
How it was run: as §3

ABUTH [26] = assay: Herbicidal pre-emergence action (Table A1); type: in vivo, Abutilon theophrasti; details: application rate 1280 g/ha; visual grading after ca. 3 weeks vs untreated controls (100% = plants have died off, 0% = as control plants)
How it was run: as §1

O=C1N(Cc2ccccc2F)CCCC12CCN(Cc1c(F)cccc1F)C2=O (racemic) [I-020]
90%: pre-emergence activity against VIOTR (VIOTR [4]) | pre-emergence activity against VERPE (VERPE [7]) | pre-emergence activity against ALOMY (ALOMY [9]) | pre-emergence activity against AMARE (AMARE) | post-emergence activity against SETVI (SETVI [11]) | pre-emergence activity against MATIN (MATIN [12]) | pre-emergence activity against ABUTH (ABUTH [13]) | post-emergence activity against DIGSA (DIGSA [16]) | pre-emergence activity against KCHSC (KCHSC) | pre-emergence activity against STEME (STEME) | pre-emergence activity against VERPE (VERPE [21]) | post-emergence activity against ECHCG (ECHCG [25]) | pre-emergence activity against ABUTH (ABUTH [26])
100%: pre-emergence activity against SETVI (SETVI [1]) | pre-emergence activity against LOLRI (LOLRI [2]) | pre-emergence activity against ECHCG (ECHCG [3]) | pre-emergence activity against SETVI (SETVI [5]) | pre-emergence activity against DIGSA (DIGSA [8]) | pre-emergence activity against POAAN (POAAN) | pre-emergence activity against ALOMY (ALOMY [10]) | pre-emergence activity against ECHCG (ECHCG [14]) | pre-emergence activity against LOLRI (LOLRI [22]) | pre-emergence activity against DIGSA (DIGSA [24])
80%: pre-emergence activity against MATIN (MATIN [15]) | post-emergence activity against ABUTH (ABUTH [20]) | post-emergence activity against VIOTR (VIOTR [23])
0%: post-emergence activity against TRZAS (TRZAS) | post-emergence activity against ORYZA (ORYZA [6]) | pre-emergence activity against ZEAMX (ZEAMX [17]) | pre-emergence activity against ORYZA (ORYZA [18])
20%: post-emergence activity against ZEAMX (ZEAMX [19])
